Article PMC8778314, “A New Series of Indeno[1,2-c]pyrazoles as EGFR TK Inhibitors for NSCLC Therapy” (Molecules, 2022)

Tests used:
[1] = target: T1, EGFR TK (Homo sapiens, UniProt P00533); experiment: EGFR TK inhibition, kinase profiling / ADP-Glo Kinase Assay; format: biochemical; conditions: 4 h incubation at room temperature
T1 construct: purchased Promega Corporation
Procedure: Manufacturer′s instructions (Promega Corporation, Madison, WI, USA) were applied for the kinase profiling assay protocol (TK-1 and TK-2) with small changes [40, 41, 42]. […] The kinase working stocks (2 µL), 2 µL of the ATP/substrate working stocks, and 1 µL of the tested compound solution (3–100 µM) and erlotinib solution (0.01–100 µM) or 5% DMSO solution in the 384-well plate were used for the kinase reactions. Following the 4 h of incubation at room temperature, the activity of kinases was screened by means of the ADP-Glo Kinase Assay (Promega Corporation, Madison, WI, USA) based on the manufacturer′s protocol. The Infinite M1000 microplate reader (Tecan, Grödig, Austria) was used to measure the kinase inhibitory effects of the compounds in a dose-response manner. Besides, the IC50 values of the tested compounds were determined using ImageJ software.

[2] = tested on: K562 chronic myelogenous leukemia (CML) cells; experiment: MTT cell viability assay, K562 cells; conditions: Homo sapiens, K562, 48 h, read-out: IC50 (µM) K562 Cells
Procedure: (§2) In experiments, K562 cells and PBMCs were cultured in 24-well and 96-well plates (Asahi Glass Co., Chiba, Japan) at 4 × 10^4 and 1 × 10^6 cells/mL concentrations, respectively, for 48 h. A549 cells were plated (24-well plate) at 1 × 10^4 cells/mL and incubated for 72 h (the optimal cell number was determined in our previous studies) [34, 35, 36]. The stock solutions of the compounds and erlotinib in concentrations ranging from 1 µM to 10 mM were prepared in DMSO (Wako Pure Chemical Industries, Osaka, Japan) and further diluted with fresh culture medium. The final DMSO concentration was adjusted as 1%, which had no effect on the cell viability [37].
(§3) Then, supernatants were discarded, and the formazan crystals were solubilized with a 100 μL DMSO addition. The absorbance of the solution was measured using an Infinite M1000 microplate reader (Tecan, Grödig, Austria) at a wavelength of 570 and 630 nm.

[3] = tested on: A549 human lung adenocarcinoma cells; experiment: MTT cell viability assay, A549 cells; conditions: A549, 72 h, read-out: IC50 (µM) A549 Cells
Procedure: as §2, §3

[4] = tested on: peripheral blood mononuclear cells (PBMCs); experiment: MTT cell viability assay, PBMCs; conditions: for cytotoxicity towards PBMCs (in words): MTT, normal cells; for IC50: PBMC, 48 h, read-out: IC50 (µM) PBMCs
Procedure: as §2, §3

[5] = target: T2, HER2 (Homo sapiens, UniProt P04626); experiment: Kinase selectivity profiling TK-1, HER2; format: biochemical; conditions: 30 µM concentration
T2 construct: purchased Promega Corporation
T2 sequence (P04626 23-1255): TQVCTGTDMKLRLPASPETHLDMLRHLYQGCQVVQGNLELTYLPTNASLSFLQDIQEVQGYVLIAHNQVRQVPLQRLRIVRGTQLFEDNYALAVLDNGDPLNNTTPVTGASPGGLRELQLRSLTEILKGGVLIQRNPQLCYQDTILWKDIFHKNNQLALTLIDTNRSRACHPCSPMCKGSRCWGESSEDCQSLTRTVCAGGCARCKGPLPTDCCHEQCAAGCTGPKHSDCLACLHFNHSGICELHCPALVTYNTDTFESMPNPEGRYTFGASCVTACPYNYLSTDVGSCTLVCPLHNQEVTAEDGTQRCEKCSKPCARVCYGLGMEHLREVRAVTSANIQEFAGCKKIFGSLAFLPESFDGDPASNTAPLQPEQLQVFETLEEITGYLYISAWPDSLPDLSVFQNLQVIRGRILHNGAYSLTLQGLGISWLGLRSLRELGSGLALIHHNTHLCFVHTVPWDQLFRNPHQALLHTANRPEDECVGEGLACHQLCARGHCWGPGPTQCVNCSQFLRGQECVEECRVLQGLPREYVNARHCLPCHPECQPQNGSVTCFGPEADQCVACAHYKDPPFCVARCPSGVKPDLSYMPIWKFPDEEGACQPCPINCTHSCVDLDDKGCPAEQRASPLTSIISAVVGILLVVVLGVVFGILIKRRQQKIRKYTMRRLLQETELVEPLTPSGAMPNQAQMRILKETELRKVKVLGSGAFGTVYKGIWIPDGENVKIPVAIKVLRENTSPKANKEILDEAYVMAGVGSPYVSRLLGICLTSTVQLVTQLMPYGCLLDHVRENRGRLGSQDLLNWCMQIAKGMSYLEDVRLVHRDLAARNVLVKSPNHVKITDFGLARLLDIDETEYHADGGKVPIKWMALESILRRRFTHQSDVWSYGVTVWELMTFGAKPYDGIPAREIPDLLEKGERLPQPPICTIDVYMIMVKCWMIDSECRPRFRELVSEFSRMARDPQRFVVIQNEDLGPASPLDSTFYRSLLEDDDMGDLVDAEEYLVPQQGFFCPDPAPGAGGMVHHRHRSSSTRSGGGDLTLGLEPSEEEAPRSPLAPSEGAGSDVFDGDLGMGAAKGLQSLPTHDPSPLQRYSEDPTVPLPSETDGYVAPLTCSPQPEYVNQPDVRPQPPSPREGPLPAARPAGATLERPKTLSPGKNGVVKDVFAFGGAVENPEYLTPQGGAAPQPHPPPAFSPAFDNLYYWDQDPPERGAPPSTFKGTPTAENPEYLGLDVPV
Procedure: (§1) Manufacturer′s instructions (Promega Corporation, Madison, WI, USA) were applied for the kinase profiling assay protocol (TK-1 and TK-2) with small changes. According to this protocol, the kinase stocks in the kinase strips and their substrate stocks in the substrate strips were diluted with 95 µL of 2.5× kinase buffer and 15 µL of 100 µM ATP solutions, respectively. The kinase working stocks (2 µL), 2 µL of the ATP/substrate working stocks, and 1 µL of the tested compound solution (3–100 µM) and erlotinib solution (0.01–100 µM) or 5% DMSO solution in the 384-well plate were used for the kinase reactions. Following the 4 h of incubation at room temperature, the activity of kinases was screened by means of the ADP-Glo Kinase Assay (Promega Corporation, Madison, WI, USA) based on the manufacturer′s protocol. The Infinite M1000 microplate reader (Tecan, Grödig, Austria) was used to measure the kinase inhibitory effects of the compounds in a dose-response manner. Besides, the IC50 values of the tested compounds were determined using ImageJ software.

[6] = target: T3, LCK (Homo sapiens, UniProt P06239); experiment: Kinase selectivity profiling TK-2, LCK; format: biochemical; conditions: 30 µM concentration
T3 construct: purchased Promega Corporation
T3 sequence (P06239 whole entry): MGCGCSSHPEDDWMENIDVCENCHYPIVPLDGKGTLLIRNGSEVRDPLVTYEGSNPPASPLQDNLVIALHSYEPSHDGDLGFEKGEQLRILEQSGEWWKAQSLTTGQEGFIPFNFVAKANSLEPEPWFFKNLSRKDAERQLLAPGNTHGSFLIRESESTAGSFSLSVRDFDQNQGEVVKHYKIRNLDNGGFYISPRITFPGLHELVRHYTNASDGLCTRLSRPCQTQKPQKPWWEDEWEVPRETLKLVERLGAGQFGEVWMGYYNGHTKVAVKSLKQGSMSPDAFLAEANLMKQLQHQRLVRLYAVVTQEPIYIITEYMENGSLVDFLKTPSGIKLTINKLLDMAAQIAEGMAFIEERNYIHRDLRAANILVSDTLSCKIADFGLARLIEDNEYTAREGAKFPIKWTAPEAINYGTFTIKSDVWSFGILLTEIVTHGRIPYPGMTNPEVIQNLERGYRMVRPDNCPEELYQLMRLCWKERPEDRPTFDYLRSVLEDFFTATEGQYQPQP
Procedure: as §1

[7] = tested on: A549 cells; experiment: Annexin V/ethidium homodimer III staining assay (apoptosis); format: cell-based, human; conditions: IC50 concentrations, 15 h
Procedure: Then, an apoptotic/necrotic cell detection kit (PromoKine, Heidelberg, Germany) was used according to manufacturer′s instructions with some modifications. Briefly, the cells were washed twice with 1× binding buffer, a staining solution containing 50 μL of 1× binding buffer, 5 μL of FITC-Annexin V solution, and 5 μL of ethidium homodimer III solution, and treated for 30 min at room temperature in a protected-light environment. After washing of cells in 1× binding buffer, cells were analyzed under a Biorevo BZ-9000 all-in-one fluorescence microscope (Keyence, Osaka, Japan). The number of apoptotic cells, late apoptotic or necrotic cells, and necrotic cells was quantified as previously described.

T1 sequence (P00533 25-1210): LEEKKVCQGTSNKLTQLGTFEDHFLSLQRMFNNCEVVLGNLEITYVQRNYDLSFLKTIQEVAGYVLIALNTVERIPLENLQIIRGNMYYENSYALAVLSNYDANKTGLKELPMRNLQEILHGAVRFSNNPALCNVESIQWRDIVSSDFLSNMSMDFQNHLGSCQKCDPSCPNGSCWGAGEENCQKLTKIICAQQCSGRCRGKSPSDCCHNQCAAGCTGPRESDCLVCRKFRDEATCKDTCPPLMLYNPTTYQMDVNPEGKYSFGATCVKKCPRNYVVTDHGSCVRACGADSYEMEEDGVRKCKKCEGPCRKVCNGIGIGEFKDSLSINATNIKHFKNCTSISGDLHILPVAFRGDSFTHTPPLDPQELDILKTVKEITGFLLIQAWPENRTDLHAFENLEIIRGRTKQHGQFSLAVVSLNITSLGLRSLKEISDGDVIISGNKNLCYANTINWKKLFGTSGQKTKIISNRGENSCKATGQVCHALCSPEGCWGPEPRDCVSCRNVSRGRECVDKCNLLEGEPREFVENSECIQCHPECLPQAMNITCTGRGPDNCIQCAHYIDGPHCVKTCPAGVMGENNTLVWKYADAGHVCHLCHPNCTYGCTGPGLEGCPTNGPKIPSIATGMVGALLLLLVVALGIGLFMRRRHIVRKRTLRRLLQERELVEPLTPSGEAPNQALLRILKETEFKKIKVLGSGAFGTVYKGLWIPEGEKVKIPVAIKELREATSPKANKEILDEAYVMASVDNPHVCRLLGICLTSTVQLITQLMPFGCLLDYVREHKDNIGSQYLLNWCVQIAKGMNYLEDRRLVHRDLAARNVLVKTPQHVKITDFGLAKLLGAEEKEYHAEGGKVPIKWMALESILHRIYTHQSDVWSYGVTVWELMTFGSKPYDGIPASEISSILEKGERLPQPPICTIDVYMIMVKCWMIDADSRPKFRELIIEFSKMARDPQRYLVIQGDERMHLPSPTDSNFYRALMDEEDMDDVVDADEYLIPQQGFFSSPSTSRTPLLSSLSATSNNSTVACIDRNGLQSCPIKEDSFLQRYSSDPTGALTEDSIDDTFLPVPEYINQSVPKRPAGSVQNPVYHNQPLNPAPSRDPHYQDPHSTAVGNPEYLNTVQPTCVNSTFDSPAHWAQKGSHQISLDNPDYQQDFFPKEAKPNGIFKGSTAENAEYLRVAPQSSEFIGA

Structure (SMILES) | IC50 [1] [µM] | IC50 [2] [µM] | IC50 [3] [µM] | cytotoxicity towards PBMCs (in words) [4] | IC50 [4] [µM] | melting point [°C] | HER2 inhibition compared to erlotinib [5] | LCK inhibition compared to erlotinib [6] | percentage of A549 cells undergoing apoptosis [7] [%]
COc1cc2c(cc1Cl)Cc1c-2nn(-c2ccccc2)c1-c1ccc(N2CCCCC2)cc1 [Compound 1, 6-Chloro-7-methoxy-2-phenyl-3-[4-(piperidin-1-yl)phenyl]-2,4-dihydroindeno[1,2-c]pyrazole] | 55.3 ± 8.68 | 3.49 ± 0.92 | 7.99 ± 1.84 | no significant cytotoxicity | 95.7 ± 11.7 | – | – | – | –
COc1cc2c(cc1Cl)Cc1c-2nn(-c2ccc(F)cc2)c1-c1ccc(N2CCCCC2)cc1 [Compound 2, 6-Chloro-7-methoxy-2-(4-fluorophenyl)-3-[4-(piperidin-1-yl)phenyl]-2,4-dihydroindeno[1,2-c]pyrazole] | – | – | > 10 | – | – | 188 to 190 | – | – | –
COc1cc2c(cc1Cl)Cc1c-2nn(-c2ccc(Cl)cc2)c1-c1ccc(N2CCCCC2)cc1 [Compound 3, 6-Chloro-7-methoxy-2-(4-chlorophenyl)-3-[4-(piperidin-1-yl)phenyl]-2,4-dihydroindeno[1,2-c]pyrazole] | – | – | > 10 | – | – | – | – | – | –
COc1cc2c(cc1Cl)Cc1c-2nn(-c2ccc(Br)cc2)c1-c1ccc(N2CCCCC2)cc1 [Compound 4, 6-Chloro-7-methoxy-2-(4-bromophenyl)-3-[4-(piperidin-1-yl)phenyl]-2,4-dihydroindeno[1,2-c]pyrazole] | 17.6 | 2.65 ± 0.75 | 6.13 ± 1.42 | no significant cytotoxicity | 19.6 ± 4.25 | 125 to 126 | more significantly than erlotinib | more significantly than erlotinib | 56.30
COc1cc2c(cc1Cl)Cc1c-2nn(-c2ccc(C#N)cc2)c1-c1ccc(N2CCCCC2)cc1 [Compound 5, 6-Chloro-7-methoxy-2-(4-cyanophenyl)-3-[4-(piperidin-1-yl)phenyl]-2,4-dihydroindeno[1,2-c]pyrazole] | – | – | > 10 | – | – | – | – | – | –
COc1cc2c(cc1Cl)Cc1c-2nn(-c2ccc(S(C)(=O)=O)cc2)c1-c1ccc(N2CCCCC2)cc1 [Compound 6, 6-Chloro-7-methoxy-2-(4-(methylsulfonyl)phenyl)-3-[4-(piperidin-1-yl)phenyl]-2,4-dihydroindeno[1,2-c]pyrazole] | – | – | > 10 | – | – | 116 to 117 | – | – | –
COc1cc2c(cc1Cl)Cc1c-2nn(-c2ccc(C)cc2)c1-c1ccc(N2CCCCC2)cc1 [Compound 7, 6-Chloro-7-methoxy-2-(4-methylphenyl)-3-[4-(piperidin-1-yl)phenyl]-2,4-dihydroindeno[1,2-c]pyrazole] | 46.7 ± 7.04 | 2.76 ± 0.83 | 8.67 ± 2.18 | no significant cytotoxicity | > 100 | 123 to 124 | – | – | –
C#Cc1cccc(Nc2ncnc3cc(OCCOC)c(OCCOC)cc23)c1 [Erlotinib, reference compound] | – | 29.6 ± 5.26 | 19.7 ± 3.15 | – | 44.3 ± 7.84 | – | – | – | 53.60
